These results are taken from PMC7760626, “Screening of Human CYP1A2 and CYP3A4 Inhibitors from Seaweed In Silico and In Vitro” (Marine Drugs, 2020).

“And” between values parts separate entries of the source, which are not always exact repeats. Identical values can stand only once. Like-named read-outs stand apart in the source and are kept apart here.

For series [1], the target named is T1, CYP1A2 (Homo sapiens, UniProt P05177).
T1 sequence (P05177 1-516): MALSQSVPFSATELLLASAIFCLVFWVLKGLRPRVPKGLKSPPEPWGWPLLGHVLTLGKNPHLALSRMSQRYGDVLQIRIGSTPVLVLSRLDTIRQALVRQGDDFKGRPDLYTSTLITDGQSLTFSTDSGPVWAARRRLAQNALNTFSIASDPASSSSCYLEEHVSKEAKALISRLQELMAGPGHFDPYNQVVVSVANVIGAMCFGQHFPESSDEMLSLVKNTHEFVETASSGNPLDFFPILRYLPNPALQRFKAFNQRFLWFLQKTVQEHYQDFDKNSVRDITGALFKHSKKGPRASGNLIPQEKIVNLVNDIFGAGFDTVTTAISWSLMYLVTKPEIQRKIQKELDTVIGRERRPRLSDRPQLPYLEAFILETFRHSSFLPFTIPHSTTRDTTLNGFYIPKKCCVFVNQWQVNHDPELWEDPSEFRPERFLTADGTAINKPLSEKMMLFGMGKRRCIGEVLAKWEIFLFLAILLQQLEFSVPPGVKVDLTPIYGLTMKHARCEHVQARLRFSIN
Put plainly: Vivid CYP1A2 blue screening kit inhibition assay. Particulars: 3.125–200 μM; for effect on CYP1A2 activity (in words): in vitro. On the procedure:
(§1) Human CYP1A2 and CYP3A4 activities were determined using the Vivid™ CYP1A2 blue screening kit and Vivid™ CYP3A4 red screening kit according to the manufacturer’s instructions. For the CYP1A2 and CYP3A4 inhibition assay, different concentrations (3.125–200 μM) of test compounds or inhibitors were mixed with a master pre-mix comprising of CYP450 BACULOSOMES® reagent and regeneration system which contained glucose-6-phosphate and glucose-6-phosphate dehydrogenase. The mixture was incubated at room temperature for 10 min. Following incubation, each CYP enzyme-specific substrate (Vivid EOMCC for CYP1A2 and Vivid BOMR for CYP3A4) and NADP^+ were added to start the reaction. The plate was immediately transferred into the fluorescent plate reader and read in 1 min intervals for 60 min at Ex 415 nm/Em 460 nm (CYP1A2) and Ex 550 nm/Em 590 nm (CYP3A4), respectively. […] The plots were made with Graph-Pad Prism software (Graph-Pad, San Diego, CA, USA).

The next series has as its target human recombinant CYP3A4 (Homo sapiens, UniProt P08684). Put plainly: Vivid CYP3A4 red screening kit inhibition assay. On the procedure:
as §1

Series [2] concerns CYP1A1. Particulars: read-out: IC50 CYP1A1 enzyme activity; cited from earlier work.
The subject of series [3] is CYP1A2. Particulars: read-out: IC50 CYP1A2 enzyme activity; cited from earlier work.
In series [4] the test system is CYP3A4. Particulars: read-out: IC50 CYP3A4 enzyme activity; cited from earlier work.
Series [5] deals with CYP1A1. Details: method as in PMID 31655123. The following applies: cited from earlier work.
Series [6] concerns CYP1A2. Particulars: cited from earlier work.
The next series concerns CYP2E1. The following applies: cited from earlier work.
The next series has as its system CYP2D6. Particulars: cited from earlier work.
Another series has as its system CYP2C19. Particulars: cited from earlier work.
The test system of series [7] is CYP3A4. Particulars: cited from earlier work.
The mark [8] stands for this setting: CYP1A2 In Vitro IC50, CYP1A2 BACULOSOMES, substrate Vivid EOMCC, n.i. = no inhibition.

By IC50 is commonly meant the concentration at which inhibition is half-maximal.

Sequence of human recombinant CYP3A4 (P08684 whole entry): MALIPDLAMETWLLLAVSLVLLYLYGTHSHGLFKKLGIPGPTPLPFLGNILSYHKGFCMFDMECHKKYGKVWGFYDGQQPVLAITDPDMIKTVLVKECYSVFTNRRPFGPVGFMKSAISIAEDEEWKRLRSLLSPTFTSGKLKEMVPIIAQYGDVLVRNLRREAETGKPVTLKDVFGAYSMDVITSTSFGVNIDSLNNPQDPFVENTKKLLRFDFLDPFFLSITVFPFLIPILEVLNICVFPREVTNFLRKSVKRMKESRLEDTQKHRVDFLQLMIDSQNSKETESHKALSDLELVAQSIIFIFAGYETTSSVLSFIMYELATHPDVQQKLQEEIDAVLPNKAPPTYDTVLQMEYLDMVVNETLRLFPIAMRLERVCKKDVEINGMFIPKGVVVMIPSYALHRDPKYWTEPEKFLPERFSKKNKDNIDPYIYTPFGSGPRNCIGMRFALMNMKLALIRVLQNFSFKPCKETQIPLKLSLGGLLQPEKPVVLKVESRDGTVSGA

Turning to `CC(=O)O[C@H]1CC(C)(C)C(=C=C/C(C)=C/C=C/C(C)=C/C=C/C=C(C)/C=C/C=C(\C)C(=O)C[C@@]23O[C@]2(C)C[C@@H](O)CC3(C)C)[C@](C)(O)C1` [Fucoxanthin, fucoxanthin], the IC50 was 30.3 µM on CYP1A2 [1] (setting [8]); 24.4 µM on human recombinant CYP3A4 (CYP3A4 In Vitro IC50, CYP3A4 BACULOSOMES, substrate Vivid BOMR, 3.125–200 μM, n.i. = no inhibition); 12.5 µM in the series on CYP1A1 [2]; 49 µM in the series on CYP1A2 [3]; 11 µM in the series with CYP3A4 [4]. For the same compound, the IC50 at 60 min on CYP1A2 [1] (human, recombinant human CYP1A2 (CYP450 BACULOSOMES reagent), probe Vivid EOMCC, CYP1A2 In Vitro IC50, CYP1A2 BACULOSOMES, substrate Vivid EOMCC, n.i. = no inhibition) is 30.2 µM.
For the compound `COc1ccc([C@@H]2CC(=O)c3c(O)cc(O[C@@H]4O[C@H](CO[C@@H]5O[C@@H](C)[C@H](O)[C@@H](O)[C@H]5O)[C@@H](O)[C@H](O)[C@H]4O)cc3O2)cc1O` [Hesperidin, hesperidin], the “effect on CYP1A2 activity (in words)” value is on record as “did not show any significant effect” on CYP1A2 [1] and “no significant inhibitory effect” at CYP1A2 [1] (listed as HSP). The “effect on CYP3A4 activity (in words)” value on human recombinant CYP3A4 (in vitro, at high concentrations) was “slightly inhibited”.
On to `O=c1c(O)c(-c2ccc(O)cc2O)oc2cc(O)cc(O)c12` [Morin, morin hydrate], for which the IC50 against CYP1A2 [1] (setting [8]) is 41.8 µM and 41.9 µM; with CYP1A1 [5], 126 µM.
Turning to `O=c1c(O)c(-c2ccc(O)c(O)c2)oc2cc(O)cc(O)c12` [Quercetin, quercetin], in the series with CYP1A2 [6], the “effect on CYP1A2 (in words)” value is reported as “did not show any significant effect”. Further, the “effect on CYP2E1 (in words)” value in the series on CYP2E1 is “did not show any significant effect”. Also, in the series with CYP2D6, the “inhibitory effect against CYP2D6 (in words)” value was “strong inhibitory effect”. Also, the “inhibitory effect against CYP2C19 (in words)” value with CYP2C19 is on record as “moderate effect”. Besides, the “inhibitory effect against CYP3A4 (in words)” value in the series with CYP3A4 [7] is on record as “moderate effect”.
